This is an account of results in patent US20240084258A1, “METHOD FOR PREPARING BROWN ADIPOCYTE” (KYOTO PREFECTURAL PUBLIC UNIVERSITY CORPORATION, priority 2015, published 2024).

Each structure is given as a SMILES string.

The subject of this assay is human dermal fibroblasts (HDFs). As to the kind of experiment: UCP1, CIDEA and KCNK3 gene mRNA by real time RT-PCR (Example 17). It is filed as cell-based. Here is the method:
(Day −1). In the control (Ctrl) group, the culture supernatant of the next day (Day 0) was removed by suction and the cells were cultured in a normal medium up to day 14 while substituting the medium with a fresh one once every other day. In groups other than the control (Ctrl) group, the culture supernatant was removed by suction on day 0, and an adipocyte induction medium added with any of ALK5 inhibitor II (4 μM) and LY2157299 (8 μM) was added at 1 mL/well.
Thereafter, the cells were cultured in an adipocyte induction medium free of any compound of ALK5 inhibitor II and LY215799 during Day 9-Day 14. On day 14, the medium was removed by suction from the wells of all groups, and the cells were washed with PBS(−).
On the technique in general: In qPCR the cycle at which signal appears reflects the starting amount.

Setting [1] is: ALK5 inhibitor II 4 μM or LY2157299 8 μM up to Day 9, day 14, FIG. 17.

Consider `Cc1cccc(-c2n[nH]cc2-c2ccc3ncccc3n2)n1` [ALK5 Inhibitor II, 2-(3-(6-Methylpyridin-2-yl)-1H-pyrazol-4-yl)-1,5-naphthyridine], for which, under setting [1], the CIDEA gene expression result is “induced into brown adipocytes expressing UCP1 gene, CIDEA gene and KCNK3 gene”; the KCNK3 gene expression result is “induced into brown adipocytes expressing UCP1 gene, CIDEA gene and KCNK3 gene”; the UCP1 gene expression entry was “induced into brown adipocytes expressing UCP1 gene, CIDEA gene and KCNK3 gene”. Moreover, the “strength of induction of UCP1 gene expression, compared with LY2157299” value (ALK5 inhibitor II 4 μM versus LY2157299 8 μM, day 14) is recorded as “more strongly induced”.
